# US5824771A, “Cyclic CRF agonists” (The Salk Institute for Biological Studies, priority 1997, dated 1998)
# Like-named read-outs stand apart in the source and are kept apart here. Bridge positions count the residues as written; N and C are the ends. Square brackets hold non-standard residues; d marks the D form. Peptide text beside a SMILES is read from it. Nle = CCCC[C@H](N)C(=O)O
# System: rat anterior pituitary cells
# Test: In vitro stimulation of ACTH and β-endorphin secretion by cultured rat pituitary cells, potency compared with oCRF (Standard) or r/hCRF
# Type: cell-based
# Experimental: The cyclic CRF agonists are examined for their effects on the secretion of ACTH and β-endorphin in vitro and also in vivo. […] In vivo testing is carried out using the general procedure set forth in C. Rivier et al., Science, 218, 377 (1982).
# [1] = relative to the laboratory Standard (synthetic oCRF), cultured rat pituitary cells, limits in parentheses
SMILES,in vitro potency to stimulate secretion of ACTH relative to the Standard [1],in vitro potency to stimulate secretion of ACTH relative to the Standard,further results
"CC[C@H](C)[C@H](NC(=O)[C@@H]1CCCN1C(=O)[C@@H]1CCCN1C(C)=O)C(=O)N[C@@H](CO)C(=O)N[C@@H](CC(C)C)C(=O)N[C@@H](CC(=O)O)C(=O)N[C@@H](CC(C)C)C(=O)N[C@H](C(=O)N[C@H](Cc1ccccc1)C(=O)N[C@@H](Cc1c[nH]cn1)C(=O)N[C@@H](CC(C)C)C(=O)N[C@@H](CC(C)C)C(=O)N[C@@H](CCCNC(=N)N)C(=O)N[C@@H](CCC(=O)O)C(=O)N[C@@H](CCSC)C(=O)N[C@@H](CC(C)C)C(=O)N[C@@H](CCC(=O)O)C(=O)N[C@@H](CCSC)C(=O)N[C@@H](C)C(=O)N[C@@H](CCCCN)C(=O)N[C@@H](C)C(=O)N[C@@H](CCC(=O)O)C(=O)N[C@@H](CCC(N)=O)C(=O)N[C@@H](CCC(=O)O)C(=O)N[C@@H](C)C(=O)N[C@@H](CCC(=O)O)C(=O)N[C@H]1CCC(=O)NCCCC[C@@H](C(=O)N[C@@H](CC(N)=O)C(=O)N[C@@H](CCCNC(=N)N)C(=O)N[C@@H](CC(C)C)C(=O)N[C@@H](CC(C)C)C(=O)N[C@@H](CC(C)C)C(=O)N[C@@H](CCC(=O)O)C(=O)N[C@@H](CCC(=O)O)C(=O)N[C@@H](C)C(N)=O)NC(=O)[C@H](C)NC(=O)[C@H](C)NC1=O)[C@@H](C)O [(cyclo 30-33)[Ac-Pro^4, D-Phe^12, Glu^30, Lys^33]-AHC(4-41)] (Ac-PPISLDLT[dF]HLLREMLEMAKAEQEAEEAAKNRLLLEEA-NH2; lactam 27-30)",about 7.5 times,,
CCCC[C@H](NC(=O)[C@H](CCC(=O)O)NC(=O)[C@@H](NC(=O)[C@H](CCCC)NC(=O)[C@H](CC(N)=O)NC(=O)[C@H](CCCNC(=N)N)NC(=O)[C@H](CC(C)C)NC(=O)[C@H](CC(C)C)NC(=O)[C@H](Cc1c[nH]cn1)NC(=O)[C@@H](Cc1ccccc1)NC(=O)[C@@H](NC(=O)[C@H](CC(C)C)NC(=O)[C@H](CC(=O)O)NC(=O)[C@@H](NC(=O)[C@H](CO)NC(=O)[C@@H](NC(=O)[C@H]1CCCN1C(=O)[C@@H]1CCCN1C(C)=O)[C@@H](C)CC)[C@@H](C)CC)[C@@H](C)O)[C@@H](C)CC)C(=O)N[C@@H](C)C(=O)N[C@@H](CCCNC(=N)N)C(=O)N[C@@H](CC(N)=O)C(=O)N[C@@H](CCC(=O)O)C(=O)N[C@@H](CC(N)=O)C(=O)N[C@@H](CCC(N)=O)C(=O)N[C@@H](CCCNC(=N)N)C(=O)N[C@@H](CCC(=O)O)C(=O)N[C@H]1CCC(=O)NCCCC[C@@H](C(=O)N[C@@H](CC(N)=O)C(=O)N[C@@H](CCCNC(=N)N)C(=O)N[C@@H](CCCCN)C(=O)N[C@@H](Cc2ccc(O)cc2)C(=O)N[C@@H](CC(C)C)C(=O)N[C@@H](CC(=O)O)C(=O)N[C@@H](CCC(=O)O)C(=O)N[C@H](C(N)=O)C(C)C)NC(=O)[C@@H](C)NC(=O)[C@H](C)NC1=O [Example 8 A D-Ala^32 analog] (Ac-P[dP]ISIDLT[dF]HLLRN[Nle]IE[Nle]ARNENQREEA[dA]KNRKYLDEV-NH2; lactam 27-30),,about 4.9 times,
CCCC[C@H](NC(=O)[C@H](CCCCN)NC(=O)[C@H](CCCNC(=N)N)NC(=O)[C@H](CC(C)C)NC(=O)[C@H](CC(C)C)NC(=O)[C@H](CCC(=O)O)NC(=O)[C@@H](CC(C)C)NC(=O)[C@H](CO)NC(=O)[C@H](CC(C)C)NC(=O)[C@H](CC(=O)O)NC(=O)[C@@H](NC(=O)[C@H](CO)NC(=O)[C@@H](NC(=O)[C@H]1CCCN1C(=O)[C@@H]1CCCN1C(C)=O)[C@@H](C)CC)[C@@H](C)CC)C(=O)N[C@H](C(=O)N[C@@H](CCC(=O)O)C(=O)N[C@H](C(=O)N[C@@H](CCC(=O)O)C(=O)N[C@@H](CCCCN)C(=O)N[C@@H](CCC(N)=O)C(=O)N[C@@H](CCC(=O)O)C(=O)N[C@@H](CCCCN)C(=O)N[C@@H](CCC(=O)O)C(=O)N[C@@H](CCCCN)C(=O)N[C@@H](CCC(N)=O)C(=O)N[C@H]1CCC(=O)NCCCC[C@@H](C(=O)N[C@@H](CC(N)=O)C(=O)N[C@@H](CCCNC(=N)N)C(=O)N[C@@H](CC(C)C)C(=O)N[C@@H](CC(C)C)C(=O)N[C@@H](CC(C)C)C(=O)N[C@@H](CC(=O)O)C(=O)N[C@H](C(=O)N[C@H](C(N)=O)[C@@H](C)CC)[C@@H](C)O)NC(=O)[C@@H](C)NC(=O)[C@H](C)NC1=O)[C@@H](C)CC)[C@@H](C)CC [Example 8 B D-Ala^31 analog] (Ac-P[dP]ISIDLS[dL]ELLRK[Nle]IEIEKQEKEKQEA[dA]KNRLLLDTI-NH2; lactam 27-30),about 2 times,,
CCCC[C@H](NC(=O)[C@H](CCC(=O)O)NC(=O)[C@H](CC(C)C)NC(=O)[C@H](CCCC)NC(=O)[C@H](CCC(=O)O)NC(=O)[C@H](CCCNC(=N)N)NC(=O)[C@H](CC(C)C)NC(=O)[C@H](CC(C)C)NC(=O)[C@H](Cc1c[nH]cn1)NC(=O)[C@@H](Cc1ccccc1)NC(=O)[C@@H](NC(=O)[C@H](CC(C)C)NC(=O)[C@H](CC(=O)O)NC(=O)[C@H](CC(C)C)NC(=O)[C@H](CO)NC(=O)[C@@H](NC(=O)[C@H]1CCCN1C(=O)[C@@H]1CCCN1C(C)=O)[C@@H](C)CC)[C@@H](C)O)C(=O)N[C@@H](C)C(=O)N[C@@H](CCCCN)C(=O)N[C@@H](C)C(=O)N[C@@H](CCC(=O)O)C(=O)N[C@@H](CCC(N)=O)C(=O)N[C@@H](CCC(=O)O)C(=O)N[C@@H](C)C(=O)N[C@@H](CCC(=O)O)C(=O)N[C@H]1CCC(=O)NCCCC[C@@H](C(=O)N[C@@H](CC(N)=O)C(=O)N[C@@H](CCCNC(=N)N)C(=O)N[C@@H](CC(C)C)C(=O)N[C@@H](CC(C)C)C(=O)N[C@@H](CC(C)C)C(=O)N[C@@H](CCC(=O)O)C(=O)N[C@@H](CCC(=O)O)C(=O)N[C@@H](C)C(N)=O)NC(=O)[C@@H](C)NC(=O)[C@H](C)NC1=O [Example 8 C D-Ala^32 analog] (Ac-P[dP]ISLDLT[dF]HLLRE[Nle]LE[Nle]AKAEQEAEEA[dA]KNRLLLEEA-NH2; lactam 27-30),,about 6.35 times,
CCCC[C@H](NC(=O)[C@H](CCC(=O)O)NC(=O)[C@H](CC(C)C)NC(=O)[C@H](CCCC)NC(=O)[C@H](CCC(=O)O)NC(=O)[C@H](CCCNC(=N)N)NC(=O)[C@H](CC(C)C)NC(=O)[C@H](CC(C)C)NC(=O)[C@H](Cc1c[nH]cn1)NC(=O)[C@@H](Cc1ccccc1)NC(=O)[C@@H](NC(=O)[C@H](CC(C)C)NC(=O)[C@H](CC(=O)O)NC(=O)[C@H](CC(C)C)NC(=O)[C@H](CO)NC(C)=O)[C@@H](C)O)C(=O)N[C@@H](C)C(=O)N[C@@H](CCCCN)C(=O)N[C@@H](C)C(=O)N[C@@H](CCC(=O)O)C(=O)N[C@@H](CCC(N)=O)C(=O)N[C@@H](CCC(=O)O)C(=O)N[C@@H](C)C(=O)N[C@@H](CCC(=O)O)C(=O)N[C@H]1CCC(=O)NCCCC[C@@H](C(=O)N[C@@H](CC(N)=O)C(=O)N[C@@H](CCCNC(=N)N)C(=O)N[C@@H](CC(C)C)C(=O)N[C@@H](CC(C)C)C(=O)N[C@@H](CC(C)C)C(=O)N[C@@H](CCC(=O)O)C(=O)N[C@@H](CCC(=O)O)C(=O)N[C@@H](C)C(N)=O)NC(=O)[C@H](C)NC(=O)[C@H](C)NC1=O [Example 16 A Ala^32 cyclic analog] (Ac-SLDLT[dF]HLLRE[Nle]LE[Nle]AKAEQEAEEAAKNRLLLEEA-NH2; lactam 24-27),,,"in vitro biopotency, comparison in words (compared with the Standard or with a named analog): biopotency greater than the Standard peptide"
